# Results as given in patent publication EP4140481A1, “PROTEIN-OLIGOMER BINDING AGENTS AND THERAPEUTIC USES THEREOF” (Galyan Bio, Inc., priority 2021, dated 2023).
# Read-outs that look alike come from different tables or passages of the source.
# Key:
# mHTT = biological target: T1, mHTT (Homo sapiens, UniProt P42858); assay: mHTT levels in striatal cells (immunocytochemistry); assay type: cell-based, mouse; conditions: STHdh 111/111, 10 µM, 3 hours heat shock, 48 hours treatment, percentage in comparison to untreated STHdh 111/111, 3B5H10 antibody; for remaining activity at 10 µM: read-out: mHTT after treatment
# T1 construct: host or cells: ST HDH Q111/111 mouse striatal cell line (knock-in locus)
# T1 sequence (P42858 with tags, fused parts or gaps with the stated changes): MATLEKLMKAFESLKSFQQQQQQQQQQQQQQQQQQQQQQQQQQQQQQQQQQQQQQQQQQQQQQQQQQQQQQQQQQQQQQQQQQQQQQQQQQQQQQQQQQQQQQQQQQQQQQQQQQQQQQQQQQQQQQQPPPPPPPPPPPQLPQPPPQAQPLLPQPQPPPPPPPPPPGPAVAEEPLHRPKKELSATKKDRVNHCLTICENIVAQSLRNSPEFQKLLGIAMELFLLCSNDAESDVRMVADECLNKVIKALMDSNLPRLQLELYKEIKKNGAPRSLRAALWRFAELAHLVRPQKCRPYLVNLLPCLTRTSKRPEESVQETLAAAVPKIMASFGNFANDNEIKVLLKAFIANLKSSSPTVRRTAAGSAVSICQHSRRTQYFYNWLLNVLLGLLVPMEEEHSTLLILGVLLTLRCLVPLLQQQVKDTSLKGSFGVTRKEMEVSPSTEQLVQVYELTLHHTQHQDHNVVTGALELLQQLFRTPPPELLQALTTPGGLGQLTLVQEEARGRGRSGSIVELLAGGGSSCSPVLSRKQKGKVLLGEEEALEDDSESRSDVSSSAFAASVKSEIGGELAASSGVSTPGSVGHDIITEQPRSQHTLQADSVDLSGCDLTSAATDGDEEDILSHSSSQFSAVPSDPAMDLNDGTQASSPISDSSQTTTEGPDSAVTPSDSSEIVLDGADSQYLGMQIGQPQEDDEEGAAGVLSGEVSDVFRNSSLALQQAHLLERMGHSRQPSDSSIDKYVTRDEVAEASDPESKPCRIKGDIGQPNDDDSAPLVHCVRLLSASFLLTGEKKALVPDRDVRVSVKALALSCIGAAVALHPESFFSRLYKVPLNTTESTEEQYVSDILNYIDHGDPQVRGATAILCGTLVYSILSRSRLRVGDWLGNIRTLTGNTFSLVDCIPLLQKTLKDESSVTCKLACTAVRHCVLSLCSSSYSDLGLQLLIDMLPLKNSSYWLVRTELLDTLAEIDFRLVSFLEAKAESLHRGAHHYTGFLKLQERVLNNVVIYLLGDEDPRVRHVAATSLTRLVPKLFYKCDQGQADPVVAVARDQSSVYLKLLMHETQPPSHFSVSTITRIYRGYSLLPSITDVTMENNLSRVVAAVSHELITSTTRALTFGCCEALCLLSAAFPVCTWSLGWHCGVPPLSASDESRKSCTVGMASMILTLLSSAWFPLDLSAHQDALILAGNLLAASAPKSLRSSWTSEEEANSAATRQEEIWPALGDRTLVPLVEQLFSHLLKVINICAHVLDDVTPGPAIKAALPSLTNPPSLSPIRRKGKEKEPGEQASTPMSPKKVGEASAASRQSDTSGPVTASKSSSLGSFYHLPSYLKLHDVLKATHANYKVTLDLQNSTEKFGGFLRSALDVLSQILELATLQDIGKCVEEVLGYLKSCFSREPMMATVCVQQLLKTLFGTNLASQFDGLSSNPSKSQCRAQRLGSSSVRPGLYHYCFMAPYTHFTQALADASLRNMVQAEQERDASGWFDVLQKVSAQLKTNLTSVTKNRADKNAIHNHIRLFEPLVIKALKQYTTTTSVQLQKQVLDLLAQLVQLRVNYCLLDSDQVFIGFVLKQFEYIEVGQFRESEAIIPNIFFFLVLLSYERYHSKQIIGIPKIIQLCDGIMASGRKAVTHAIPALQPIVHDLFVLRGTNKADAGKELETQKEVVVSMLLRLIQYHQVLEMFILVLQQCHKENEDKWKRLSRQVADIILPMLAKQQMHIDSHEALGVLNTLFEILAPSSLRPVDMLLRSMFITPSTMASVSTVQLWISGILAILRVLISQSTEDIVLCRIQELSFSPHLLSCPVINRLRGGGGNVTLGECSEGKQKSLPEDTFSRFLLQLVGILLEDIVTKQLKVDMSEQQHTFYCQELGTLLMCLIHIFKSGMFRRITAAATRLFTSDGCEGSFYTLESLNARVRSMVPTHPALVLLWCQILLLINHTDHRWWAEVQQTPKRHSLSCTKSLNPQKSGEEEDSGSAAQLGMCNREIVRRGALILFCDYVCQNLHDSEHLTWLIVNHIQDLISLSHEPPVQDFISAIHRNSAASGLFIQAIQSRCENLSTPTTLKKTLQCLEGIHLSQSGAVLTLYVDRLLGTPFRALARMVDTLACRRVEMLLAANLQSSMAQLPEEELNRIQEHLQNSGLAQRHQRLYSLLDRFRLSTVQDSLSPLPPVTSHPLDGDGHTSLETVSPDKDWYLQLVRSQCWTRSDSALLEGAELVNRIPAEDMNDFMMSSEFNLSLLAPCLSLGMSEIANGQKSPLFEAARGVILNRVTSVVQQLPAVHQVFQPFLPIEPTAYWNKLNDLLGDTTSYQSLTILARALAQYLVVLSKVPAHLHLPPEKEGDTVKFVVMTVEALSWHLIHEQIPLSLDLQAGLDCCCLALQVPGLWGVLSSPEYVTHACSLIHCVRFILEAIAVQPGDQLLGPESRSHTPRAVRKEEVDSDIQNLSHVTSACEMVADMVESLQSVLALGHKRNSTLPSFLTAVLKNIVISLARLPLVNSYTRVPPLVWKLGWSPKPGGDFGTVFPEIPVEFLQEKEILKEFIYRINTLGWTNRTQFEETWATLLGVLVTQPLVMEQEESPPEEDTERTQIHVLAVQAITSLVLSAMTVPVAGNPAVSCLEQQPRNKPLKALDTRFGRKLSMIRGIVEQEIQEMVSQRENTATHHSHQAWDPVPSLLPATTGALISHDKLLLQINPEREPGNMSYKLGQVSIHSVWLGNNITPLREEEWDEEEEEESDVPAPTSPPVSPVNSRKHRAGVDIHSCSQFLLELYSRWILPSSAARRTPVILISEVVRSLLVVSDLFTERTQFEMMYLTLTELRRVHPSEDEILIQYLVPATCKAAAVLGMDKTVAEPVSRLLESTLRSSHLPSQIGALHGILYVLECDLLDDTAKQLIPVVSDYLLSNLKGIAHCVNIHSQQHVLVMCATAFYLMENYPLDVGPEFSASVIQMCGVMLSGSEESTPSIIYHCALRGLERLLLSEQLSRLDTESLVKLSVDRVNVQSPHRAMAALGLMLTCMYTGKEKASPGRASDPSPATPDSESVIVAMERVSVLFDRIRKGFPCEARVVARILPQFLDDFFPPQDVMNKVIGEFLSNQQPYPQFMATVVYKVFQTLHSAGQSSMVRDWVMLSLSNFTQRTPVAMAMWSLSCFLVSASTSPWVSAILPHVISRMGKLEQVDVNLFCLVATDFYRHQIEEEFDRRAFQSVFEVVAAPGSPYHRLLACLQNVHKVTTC
# Experimental: (§1) Staining - Cells were permeabilized with 0.3% Triton X-100 in 4 °C PBS (pH 7.4 from ThermoFisher) for 10 minutes. Then the cells were washed two times with 4 °C PBS. Subsequently, cells are blocked with 3% NGS (normal goat serum from Thermo Fisher) in 4 ° C PBS for 1 hour. Cells were incubated with primary antibodies in blocking buffer (PBS, 3% NGS, 0.02% NaN3) over night at 4 °C. Primary antibodies were mouse antipolyglutamine monoclonal antibody 3B5H10 (Sigma-Aldrich) at 1:250 dilution and Guinea Pig anti-MAP2 polyclonal antibody (Synaptic Systems) at 1:500 dilution. 3B5H10 binds to diffuse mHTT. Diffuse mHTT is a monomeric and small oligomeric mHTT. Diffuse mHTT is correlated to pathological parameters in Huntington's disease. Compounds that bind the mHTT will reduce the levels of diffuse mHTT detected.
# Cells were washed 2 times with 4 °C PBS, and then incubated with secondary antibodies at 1:2000 dilution in blocking buffer for 1hour at room temperature. […] Cells were washed 2 times with 4 °C PBS, and then the nuclei were counterstain with DAPI (ThermoFisher) for 10 min at room temperature in the dark. Cells were washed 2 times with 4 °C PBS, and then 4 °C PBS was added to cells and then images were acquired. […] Table 11: Antibodies Used in Immunocytochemistry Studies
# Fluorescence Imaging - Imaging sessions were performed on a confocal microscope system (Carl Zeiss Microscopy) equipped with a dual spinning disk unit (Yokogawa). All components of the imaging system were controlled via the ZEN 2 software suite (Carl Zeiss Microscopy). The laser lines used were 405 nm, 488 nm and 639 nm to excite DAPI or the respective fluorophores. […] Nested t test was performed to calculate the significance amongst repeated measurements using GraphPad Prism software.
# as §1, with “For LC3 staining primary antibodies were mouse anti-LC3 mab (5F10) (nanoTools) at 1:500 dilution” for “3B5H10 binds to diffuse mHTT. Diffuse mHTT is a monomeric”, “Guinea Pig anti-MAP2 polyclonal antibody (Synaptic Systems) at 1:500 dilution.” for “small oligomeric mHTT. Diffuse mHTT is correlated to pathological parameters in Huntington's disease. Compounds that bind the mHTT will reduce the levels of diffuse mHTT detected.”
# Cells were washed 2 times with 4 °C PBS, and then incubated with secondary antibodies at 1:2000 dilution in blocking buffer for 1hour at room temperature. […] Cells were washed 2 times with 4 °C PBS, and then the nuclei were counterstain with DAPI (ThermoFisher) for 10 min at room temperature in the dark. Cells were washed 2 times with 4 °C PBS, and then 4 °C PBS was added to cells and then images were acquired.
# EC 50 value was determined with non-linear regression.
# [1] = test system: STHdh 111/111 striatal cells; assay: Cell viability after heat shock (CellTiter Glo); conditions: Mus musculus, read-out: Cell Viability striatal cells 3h heat shocked
# Experimental: Cell culture - ST HDH Q111/111 (CH00095, Coriell Institute) striatal derived cell line were grown at 33°C in DMEM (Sigma-Aldrich), supplemented with 10% fetal bovine serum (FBS), 1% Penicillin-Streptomycin (ThermoFisher Scientific), and 0.4 mg/ml G418 (Geneticin; Invitrogen). ST HDH Q111/111 are mouse striatal cells with polyQ length of 111.
# Pre-Treatment of striatal cell line - First the medium was removed and new DMEM (DMEM, high glucose, HEPES, no phenol red) medium, supplemented with 10% fetal bovine serum (FBS), 1% Penicillin-Streptomycin, containing 10 µM compound was added. The cells were incubated at 33 °C for 24 hours.
# Heat shock - Cells were heat shocked for 3 hours at 41 °C.
# Treatment - Medium was removed and new DMEM (DMEM, high glucose, HEPES, no phenol red) medium, supplemented with 1% fetal bovine serum (FBS), 1% Penicillin-Streptomycin, containing 10 µM compound was added. The cells were incubated at 33 °C for 48 hours.
# Cell Viability - Cell viability was measured according to manufacturer recommendations with CellTiter Glo (Promega).
# STHdh 7/7 striatal cells = assay: Cell viability after heat shock (CellTiter Glo); assay type: cell-based; conditions: Mus musculus, 48 hours treatment, percentage in comparison to pre-heat shock cell viability, read-out: Cell Viability striatal cells 3h heat shocked
# Experimental: RESULTS-Table 12bsummarizes the effect of the compounds on cell viability. STHdh 7/7 were heat shocked for 3 hours and treated for 48 hours with small molecule compounds. Table 12b lists the cell viability in striatal cells after 48 hours.
# Effect of Compound 22 on Cell Viability of Wildtype Striatal Neurons - STHdh 7/7 cells are striatal cells that express wildtype huntingtin. These cells were cultured in the same conditions as described above for STHdh 111/111. The neurons were first heat shocked for 3 hours at 41 °C as described above. After 48 hours of treatment with the small molecule Compounds, cell viability was determined using the method described above. The "buffer" control is represents cells treated with a buffer only, without any compounds added. Some of the compounds show higher cell viability in comparison to control heat shocked STHdh 7/7 neurons with buffer and no treatment (Figure 5).
# Mur16 and/or Mur46 = assay: Biacore Surface Plasmon Resonance (SPR) screening, binding to the target structures; conditions: for Binding properties: third analog screening, binding to the target structure in comparison to parent compound; for Biacore affinity: primary screen, compounds that demonstrated binding to Mur16 and/or Mur46
# Experimental: (§2) Exon 1 of the HTT huntingtin (NCBI Gene ID 3064) was expressed as a fusion protein with (i) TRX only (MurTRX); (ii) 16Q (Mur16); and (iii) 46Q (Mur46). MurTRX, Mur16, and Mur46 were produced and purified by HIStag and size exclusion chromatography (SEC). The protocol for MurTRX, Mur16 and Mur46 expression was adopted from Bennett, M.J. et al. Proc. Natl. Acad. Sci. USA 99, 11634-11639. 2002.
# Primary Screen - Results - 39 compounds determined from the in-silico screen were tested. Following solvent correction and blank subtraction, double referenced binding levels for samples were plotted against binding levels on both Mur 16 and Mur 46. […] The 4 compounds consistently bind with a higher response on the 16 Q surface than the 46 Q repeat surface, despite the MAb positive control showing the opposite trend.
# Mur46 = biological target: T2, Mur46 (Homo sapiens, UniProt P42858, INS38QQQQQQQQQQQQQQQQQQQQQQQQQ); assay: Biacore SPR, Mur46 coupled flow cell; conditions: binding to Mur46; 0.1 mM compound concentration
# T2 construct: linker […]; made in house; host or cells: E. coli BL21(DE3) plysE, pET28a+
# T2 sequence (P42858 with tags, fused parts or gaps with the stated changes limits assumed): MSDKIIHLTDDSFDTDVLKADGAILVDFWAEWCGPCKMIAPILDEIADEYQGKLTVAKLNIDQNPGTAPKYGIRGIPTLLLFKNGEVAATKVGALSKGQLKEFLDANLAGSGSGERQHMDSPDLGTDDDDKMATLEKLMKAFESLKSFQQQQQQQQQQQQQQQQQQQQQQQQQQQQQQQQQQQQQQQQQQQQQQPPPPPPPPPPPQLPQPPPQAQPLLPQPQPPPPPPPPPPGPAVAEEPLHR
# Text: as §2
# Biacore Affinity Values for Binding of Compounds to Mur46
# zebrafish larvae = assay: Motility Zebrafish Model (MPP+ exposure, photomotor assay and sleep); conditions: 500 µM MPP+ alone (naïve 40.8)
# Experimental: Six groups were included in each experiment. Immediately after spawning, 40 embryos per group were allocated to a 24-well plate and system water (solvent) was added to all wells. […] MPP+ was prepared immediately prior to incubation and solutions were changed daily. At 120 hpf, drug treatment and MPP+ exposure was ceased and a 3X wash was performed with system water. Larvae were then relocated to 96-well plates for behavioral recording and placed in a separate recording room for 24-hour acclimation. Prior to behavioral recording, wells were fully replenished system water.
# Naive group was exposed to solvent only. Vehicle group was exposed to solvent and vehicle corresponding to the vehicle of 20 µM drug solution (0.02% DMSO). MPP+ positive control was exposed to solvent and 500 µM MPP+.
# Behavioral data was recorded from 1 p.m. on 6 dpf until shortly after wakening on 7 dpf. The recording consisted of a photomotor assay in which lights switch off and on in 30-minute intervals between 1 p.m. and 6 p.m., producing a consistent photomotor response. […] Upon lights being turned on again, the larvae cease movement followed by a return to baseline. This cycle is repeated five times. Following the last lights-off phase, constant illumination is presented until lights turn off at 10 p.m. for the night. Lights turn on again at 8 a.m. the following day.
# Average movement frequency was measured during 30-minute lights-on phases of photomotor assay.
# Distance moved (mm) was defined as the average distance moved during 30-minute lights-on phases of photomotor assay.
# All data are presented as mean ± standard error of the mean (sem). For analysis of differences between groups, a Kruskal-Wallis one-way ANOVA with Dunn's multiple comparison post hoc test was performed. P < 0.05 was considered statistically significant.
smiles,measurement,setting,value
CCc1[nH]c2ccc(C(=O)NCCN3CCN(C)CC3)cc2c1C [Compound 9],mHTT after treatment,mHTT,37%
same,viability at 10 µM,[1]; 48 h,88%
Cc1[nH]c2ccc(C(=O)NCCN3CCN(C)CC3)cc2c1C [Compound 24],remaining activity at 10 µM,mHTT,47%
same,viability at 10 µM,[1],103%
Cc1[nH]c2ccc(C(=O)NCCN3CCOCC3(C)C)cc2c1C [Compound 28],remaining activity at 10 µM,mHTT,51%
same,viability at 10 µM,STHdh 7/7 striatal cells,52.4%
same,viability at 10 µM,[1],18%
CC(C)N(CCNC(=O)c1ccc2[nH]c3c(c2c1)CCCC3)C(C)C [Compound 34],mHTT after treatment,mHTT,56%
same,viability at 10 µM,[1]; 48 h,60%
O=C(NCCN1CCCCC1)c1ccc2[nH]c3c(c2c1)CCC3 [Compound 35],remaining activity at 10 µM,mHTT,56%
same,viability at 10 µM,[1],103%
Cc1c(C)n(C)c2ccc(C(=O)NCCN(C(C)C)C(C)C)cc12 [Compound 39],viability at 10 µM,STHdh 7/7 striatal cells,154%
same,viability at 10 µM,[1]; 48 h,117%
Cc1[nH]c2ccc(C(=O)NCCNC(C)(C)C)cc2c1C [Compound 50],remaining activity at 10 µM,mHTT,72%
same,viability at 10 µM,STHdh 7/7 striatal cells,40.9%
same,viability at 10 µM,[1],67%
Cc1[nH]c2ccc(C(=O)NCCN(C)C3CCCC3)cc2c1C [Compound 55],mHTT after treatment,mHTT,91%
same,viability at 10 µM,[1]; 48 h,67%
CC(C)N(CCNC(=O)c1ccc2[nH]c3c(c2c1)CCCC3)C(C)C [Compound 57],Binding properties,Mur16 and/or Mur46,++
Cc1[nH]c2ccc(C(=O)Nc3ccccc3NC3CCN(C)CC3)cc2c1C [Compound 103],Binding properties,Mur16 and/or Mur46,++
Cc1[nH]c2ccc(C(=O)NCCN(C)C3CCCC3)cc2c1C [Compound 105],Binding properties,Mur16 and/or Mur46,++
O=C(O)C1Cc2c([nH]c3ccccc23)C(c2cccc(Br)c2)N1 (stereo not drawn) [Compound 109],Biacore affinity,Mur16 and/or Mur46,3 RU^2
Cc1[nH]c2ccccc2c1[C@]1(O)C(=O)Nc2c(Br)cc(Br)cc21 [Compound 110],Biacore affinity,Mur16 and/or Mur46,80 RU^2
Cc1[nH]c2ccc(C(=O)NCC(=O)NC(C)C)cc2c1C [Compound 113],Biacore affinity,Mur16 and/or Mur46,160 RU^2
Cc1[nH]c2ccc(C(=O)N(C)CCN(C)C3CC3)cc2c1C [Compound 114],Binding properties,Mur16 and/or Mur46,+/-
same,Biacore affinity,Mur46,20 RU^2
CON1CCC(NC(=O)c2ccc3[nH]c(C)c(C)c3c2)CC1 [Compound 115],viability at 10 µM,STHdh 7/7 striatal cells,136%
CCN(CC)C(=O)CNC(=O)c1ccc2[nH]c(C)c(C)c2c1 [Compound 116],viability at 10 µM,STHdh 7/7 striatal cells,118%
Cc1[nH]c2ccc(C(=O)N(C)CCN3C[C@@H](C)O[C@@H](C)C3)cc2c1C [Compound 117],viability at 10 µM,STHdh 7/7 striatal cells,118%
Cc1c(C)n(Cc2ccccc2)c2ccc(C(=O)NCCN(C)C)cc12 [Compound 118],viability at 10 µM,STHdh 7/7 striatal cells,110%
Cc1[nH]c2ccc(C(=O)N3CCN(C(C)C)CC3)cc2c1C [Compound 119],viability at 10 µM,STHdh 7/7 striatal cells,101%
COC[C@H](CCNC(=O)c1ccc2[nH]c(C)c(C)c2c1)OC [Compound 120],viability at 10 µM,STHdh 7/7 striatal cells,100%
Cc1[nH]c2ccc(C(=O)NCC(C)(C)OCC3CC3)cc2c1C [Compound 121],viability at 10 µM,STHdh 7/7 striatal cells,100%
CCN(CC)CCNCc1ccc2[nH]c(C)c(C)c2c1 [Compound 122],viability at 10 µM,STHdh 7/7 striatal cells,91.2%
CCN(CCNC(=O)c1ccc2[nH]ccc2c1)C1CC1 [Compound 123],viability at 10 µM,STHdh 7/7 striatal cells,83.8%
CO[C@@H](CNC(=O)c1ccc2[nH]c(C)c(C)c2c1)C(C)C [Compound 124],viability at 10 µM,STHdh 7/7 striatal cells,76.2%
Cc1[nH]c2ccc(C(=O)N(C)CCNC(=O)C(C)C)cc2c1C [Compound 125],viability at 10 µM,STHdh 7/7 striatal cells,67.9%
Cc1[nH]c2ccc(C(=O)N3CCCN(C(C)C)CC3)cc2c1C [Compound 126],viability at 10 µM,STHdh 7/7 striatal cells,42.5%
"C[n+]1ccc(-c2ccccc2)cc1 [MPP+, 1-methyl-4-phenylpyridinium, reference compound]",movement frequency,zebrafish larvae,13.3 movement bouts in 30 minutes
